These compounds were tested on U-251 (assay: Anticancer activity against human U-251 cells assessed as cell growth inhibition at 10 uM incubated for 48 hrs by SRB assay relative to control). Conditions: read-out: GI.
Type: functional

SMILES	inhibition of growth at 10 µM [%]
NS(=O)(=O)c1ccc(Nc2nc(N/N=C/c3ccc(C(F)(F)F)cc3)nc(Nc3ccccc3)n2)cc1	81

The compounds below were run on LOX IMVI (assay: Anticancer activity against human LOX IMVI cells assessed as cell growth inhibition at 10 uM incubated for 48 hrs by SRB assay relative to control). Conditions: read-out: GI.
Type: functional

SMILES	inhibition of growth at 10 µM [%]
NS(=O)(=O)c1ccc(Nc2nc(N/N=C/c3ccc(C(F)(F)F)cc3)nc(Nc3ccccc3)n2)cc1	90

Each compound was assayed on Malme-3M (assay: Anticancer activity against human Malme-3M cells assessed as cell growth inhibition at 10 uM incubated for 48 hrs by SRB assay relative to control). Conditions: read-out: GI.
Type: functional

SMILES	inhibition of growth at 10 µM [%]
NS(=O)(=O)c1ccc(Nc2nc(N/N=C/c3ccc(C(F)(F)F)cc3)nc(Nc3ccccc3)n2)cc1	77

The compounds below were run on SK-MEL-28 (assay: Anticancer activity against human SK-MEL-28 cells assessed as cell growth inhibition at 10 uM incubated for 48 hrs by SRB assay relative to control). Conditions: read-out: GI.
Type: functional

SMILES	inhibition of growth at 10 µM [%]
NS(=O)(=O)c1ccc(Nc2nc(N/N=C/c3ccc(C(F)(F)F)cc3)nc(Nc3ccccc3)n2)cc1	72

The compounds below were run on SK-MEL-5 (assay: Anticancer activity against human SK-MEL-5 cells assessed as cell growth inhibition at 10 uM incubated for 48 hrs by SRB assay relative to control). Conditions: read-out: GI.
Type: functional

SMILES	inhibition of growth at 10 µM [%]
NS(=O)(=O)c1ccc(Nc2nc(N/N=C/c3ccc(C(F)(F)F)cc3)nc(Nc3ccccc3)n2)cc1	65

The compounds below were run on UACC-62 (assay: Anticancer activity against human UACC-62 cells assessed as cell growth inhibition at 10 uM incubated for 48 hrs by SRB assay relative to control). Conditions: read-out: GI.
Type: functional

SMILES	inhibition of growth at 10 µM [%]
NS(=O)(=O)c1ccc(Nc2nc(N/N=C/c3ccc(C(F)(F)F)cc3)nc(Nc3ccccc3)n2)cc1	85

What follows are compounds tested on IGROV-1 (assay: Anticancer activity against human IGROV-1 cells assessed as cell growth inhibition at 10 uM incubated for 48 hrs by SRB assay relative to control). Conditions: read-out: GI.
Type: functional

SMILES	inhibition of growth at 10 µM [%]
NS(=O)(=O)c1ccc(Nc2nc(N/N=C/c3ccc(C(F)(F)F)cc3)nc(Nc3ccccc3)n2)cc1	68

What follows are compounds tested on OVCAR-3 (assay: Anticancer activity against human OVCAR-3 cells assessed as cell growth inhibition at 10 uM incubated for 48 hrs by SRB assay relative to control). Conditions: read-out: GI.
Type: functional

SMILES	inhibition of growth at 10 µM [%]
NS(=O)(=O)c1ccc(Nc2nc(N/N=C/c3ccc(C(F)(F)F)cc3)nc(Nc3ccccc3)n2)cc1	88

These compounds were tested on OVCAR-5 (assay: Anticancer activity against human OVCAR-5 cells assessed as cell growth inhibition at 10 uM incubated for 48 hrs by SRB assay relative to control). Conditions: read-out: GI.
Type: functional

SMILES	inhibition of growth at 10 µM [%]
NS(=O)(=O)c1ccc(Nc2nc(N/N=C/c3ccc(C(F)(F)F)cc3)nc(Nc3ccccc3)n2)cc1	32

Each compound was assayed on OVCAR-8 (assay: Anticancer activity against human OVCAR-8 cells assessed as cell growth inhibition at 10 uM incubated for 48 hrs by SRB assay relative to control). Conditions: read-out: GI.
Type: functional

SMILES	inhibition of growth at 10 µM [%]
NS(=O)(=O)c1ccc(Nc2nc(N/N=C/c3ccc(C(F)(F)F)cc3)nc(Nc3ccccc3)n2)cc1	67

The compounds below were run on SK-OV-3 (assay: Anticancer activity against human SK-OV-3 cells assessed as cell growth inhibition at 10 uM incubated for 48 hrs by SRB assay relative to control). Conditions: read-out: GI.
Type: functional

SMILES	inhibition of growth at 10 µM [%]
NS(=O)(=O)c1ccc(Nc2nc(N/N=C/c3ccc(C(F)(F)F)cc3)nc(Nc3ccccc3)n2)cc1	44

Each compound was assayed on 786-0 (assay: Anticancer activity against human 786-0 cells assessed as cell growth inhibition at 10 uM incubated for 48 hrs by SRB assay relative to control). Conditions: read-out: GI.
Type: functional

SMILES	inhibition of growth at 10 µM [%]
NS(=O)(=O)c1ccc(Nc2nc(N/N=C/c3ccc(C(F)(F)F)cc3)nc(Nc3ccccc3)n2)cc1	103

What follows are compounds tested on ACHN (assay: Anticancer activity against human ACHN cells assessed as cell growth inhibition at 10 uM incubated for 48 hrs by SRB assay relative to control). Conditions: read-out: GI.
Type: functional

SMILES	inhibition of growth at 10 µM [%]
NS(=O)(=O)c1ccc(Nc2nc(N/N=C/c3ccc(C(F)(F)F)cc3)nc(Nc3ccccc3)n2)cc1	60

The compounds below were run on CAKI-1 (assay: Anticancer activity against human CAKI-1 cells assessed as cell growth inhibition at 10 uM incubated for 48 hrs by SRB assay relative to control). Conditions: read-out: GI.
Type: functional

SMILES	inhibition of growth at 10 µM [%]
NS(=O)(=O)c1ccc(Nc2nc(N/N=C/c3ccc(C(F)(F)F)cc3)nc(Nc3ccccc3)n2)cc1	66

The compounds below were run on RXF 393 (assay: Anticancer activity against human RXF 393 cells assessed as cell growth inhibition at 10 uM incubated for 48 hrs by SRB assay relative to control). Conditions: read-out: GI.
Type: functional

SMILES	inhibition of growth at 10 µM [%]
NS(=O)(=O)c1ccc(Nc2nc(N/N=C/c3ccc(C(F)(F)F)cc3)nc(Nc3ccccc3)n2)cc1	139

The compounds below were run on SN12C (assay: Anticancer activity against human SN12C cells assessed as cell growth inhibition at 10 uM incubated for 48 hrs by SRB assay relative to control). Conditions: read-out: GI.
Type: functional

SMILES	inhibition of growth at 10 µM [%]
NS(=O)(=O)c1ccc(Nc2nc(N/N=C/c3ccc(C(F)(F)F)cc3)nc(Nc3ccccc3)n2)cc1	57

These compounds were tested on UO-31 (assay: Anticancer activity against human UO-31 cells assessed as cell growth inhibition at 10 uM incubated for 48 hrs by SRB assay relative to control). Conditions: read-out: GI.
Type: functional

SMILES	inhibition of growth at 10 µM [%]
NS(=O)(=O)c1ccc(Nc2nc(N/N=C/c3ccc(C(F)(F)F)cc3)nc(Nc3ccccc3)n2)cc1	39

These compounds were tested on Hs-578T (assay: Anticancer activity against human Hs-578T cells assessed as cell growth inhibition at 10 uM incubated for 48 hrs by SRB assay relative to control). Conditions: read-out: GI.
Type: functional

SMILES	inhibition of growth at 10 µM [%]
NS(=O)(=O)c1ccc(Nc2nc(N/N=C/c3ccc(C(F)(F)F)cc3)nc(Nc3ccccc3)n2)cc1	91

The compounds below were run on T47D (assay: Anticancer activity against human T47D cells assessed as cell growth inhibition at 10 uM incubated for 48 hrs by SRB assay relative to control). Conditions: read-out: GI.
Type: functional

SMILES	inhibition of growth at 10 µM [%]
NS(=O)(=O)c1ccc(Nc2nc(N/N=C/c3ccc(C(F)(F)F)cc3)nc(Nc3ccccc3)n2)cc1	68

What follows are compounds tested on MDA-MB-468 (assay: Anticancer activity against human MDA-MB-468 cells assessed as cell growth inhibition at 10 uM incubated for 48 hrs by SRB assay relative to control). Conditions: read-out: GI.
Type: functional

SMILES	inhibition of growth at 10 µM [%]
NS(=O)(=O)c1ccc(Nc2nc(N/N=C/c3ccc(C(F)(F)F)cc3)nc(Nc3ccccc3)n2)cc1	65

— ChEMBL document CHEMBL5154747, “Discovery of new carbonic anhydrase IX inhibitors as anticancer agents by toning the hydrophobic and hydrophilic rims of the active site to encounter the dual-tail approach” (Eur J Med Chem, 2022)
